{"source": "ChEMBL document CHEMBL5236633", "about": "“Multi-therapies Based on PARP Inhibition: Potential Therapeutic Approaches for Cancer Treatment” (J Med Chem, 2022)", "key": {"[1]": {"molecular_target": "Protein cereblon/Poly [ADP-ribose] polymerase 1 (Homo sapiens, UniProt P09874+Q96SW2)", "sequence (P09874 whole entry)": "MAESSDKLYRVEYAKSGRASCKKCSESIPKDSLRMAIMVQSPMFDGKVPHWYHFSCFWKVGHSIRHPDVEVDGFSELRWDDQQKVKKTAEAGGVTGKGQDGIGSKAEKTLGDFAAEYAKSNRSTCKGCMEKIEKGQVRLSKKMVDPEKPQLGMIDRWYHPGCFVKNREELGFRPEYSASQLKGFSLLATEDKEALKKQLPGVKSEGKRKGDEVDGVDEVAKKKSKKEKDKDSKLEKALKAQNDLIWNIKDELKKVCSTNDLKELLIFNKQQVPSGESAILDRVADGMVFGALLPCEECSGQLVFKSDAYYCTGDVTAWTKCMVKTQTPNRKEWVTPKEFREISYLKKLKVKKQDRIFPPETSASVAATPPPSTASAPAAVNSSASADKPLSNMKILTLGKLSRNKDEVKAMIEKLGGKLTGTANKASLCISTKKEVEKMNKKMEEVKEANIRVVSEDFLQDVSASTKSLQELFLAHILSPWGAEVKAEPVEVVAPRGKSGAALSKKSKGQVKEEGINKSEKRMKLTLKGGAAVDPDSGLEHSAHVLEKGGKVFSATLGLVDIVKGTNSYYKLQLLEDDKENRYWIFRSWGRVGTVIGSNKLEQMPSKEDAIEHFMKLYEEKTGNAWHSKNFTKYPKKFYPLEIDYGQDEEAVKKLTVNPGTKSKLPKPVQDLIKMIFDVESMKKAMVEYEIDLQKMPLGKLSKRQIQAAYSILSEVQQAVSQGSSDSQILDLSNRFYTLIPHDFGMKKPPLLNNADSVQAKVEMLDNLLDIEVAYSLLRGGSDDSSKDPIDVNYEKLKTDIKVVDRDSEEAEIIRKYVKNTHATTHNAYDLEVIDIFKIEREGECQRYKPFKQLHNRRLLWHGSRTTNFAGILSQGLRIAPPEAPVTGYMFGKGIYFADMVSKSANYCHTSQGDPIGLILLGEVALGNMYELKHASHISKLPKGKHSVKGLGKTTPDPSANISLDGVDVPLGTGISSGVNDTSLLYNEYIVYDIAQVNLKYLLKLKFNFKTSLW", "sequence (Q96SW2 whole entry)": "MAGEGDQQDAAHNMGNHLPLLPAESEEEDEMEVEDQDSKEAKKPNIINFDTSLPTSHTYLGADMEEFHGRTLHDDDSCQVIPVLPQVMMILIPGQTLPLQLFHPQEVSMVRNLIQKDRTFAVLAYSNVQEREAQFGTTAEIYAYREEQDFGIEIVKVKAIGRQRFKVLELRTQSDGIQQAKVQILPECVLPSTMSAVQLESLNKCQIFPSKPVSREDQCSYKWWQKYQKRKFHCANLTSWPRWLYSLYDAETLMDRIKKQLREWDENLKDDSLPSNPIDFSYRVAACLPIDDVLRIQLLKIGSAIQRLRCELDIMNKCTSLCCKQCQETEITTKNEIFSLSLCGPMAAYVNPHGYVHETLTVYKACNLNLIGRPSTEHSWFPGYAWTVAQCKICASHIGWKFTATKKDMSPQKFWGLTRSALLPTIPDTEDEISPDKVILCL", "assay": "Protac activity at CRBN/PARP1 in human HeLa cells assessed as induction of PARP-1 degradation measured after 24 hrs by immunoblotting analysis", "type": "cell-based"}, "[2]": {"molecular_target": "T1, Poly [ADP-ribose] polymerase 1 (Homo sapiens, UniProt P09874)", "T1 sequence (P09874 whole entry)": "as the sequence (P09874 whole entry) above", "assay": "Inhibition of PARP1 (unknown origin) incubated for 30 mins by fluorescence based analysis"}, "MDA-MB-436": {"system": "MDA-MB-436", "assay": "Antiproliferative activity against human BRCA1 -/- MDA-MB-436 cells assessed as cell growth inhibition", "type": "functional, cell-based"}, "[3]": {"molecular_target": "T1, Poly [ADP-ribose] polymerase 1", "assay": "Inhibition of PARP1 (unknown origin)"}, "A549 [4]": {"system": "A549", "assay": "Antiproliferative activity against human A549 cells assessed as cell growth inhibition", "type": "functional, cell-based"}, "[5]": {"molecular_target": "T2, Protein mono-ADP-ribosyltransferase PARP3 (Homo sapiens, UniProt Q9Y6F1)", "T2 sequence (Q9Y6F1 whole entry)": "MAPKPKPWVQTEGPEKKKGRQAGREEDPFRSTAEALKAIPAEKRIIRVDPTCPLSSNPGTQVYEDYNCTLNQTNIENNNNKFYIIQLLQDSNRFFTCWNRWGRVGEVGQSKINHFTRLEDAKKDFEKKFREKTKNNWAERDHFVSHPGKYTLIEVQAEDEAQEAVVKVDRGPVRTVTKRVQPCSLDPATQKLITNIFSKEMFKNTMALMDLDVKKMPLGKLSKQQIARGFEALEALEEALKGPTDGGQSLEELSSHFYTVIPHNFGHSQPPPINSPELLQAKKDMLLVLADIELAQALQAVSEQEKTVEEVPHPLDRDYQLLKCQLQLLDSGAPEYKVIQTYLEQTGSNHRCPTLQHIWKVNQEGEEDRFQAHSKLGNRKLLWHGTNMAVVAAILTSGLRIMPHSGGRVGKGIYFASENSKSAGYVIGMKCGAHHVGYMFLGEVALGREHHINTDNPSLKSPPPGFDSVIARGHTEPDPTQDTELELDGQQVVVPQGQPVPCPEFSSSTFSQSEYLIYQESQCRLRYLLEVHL", "assay": "Inhibition of PARP3 (unknown origin)"}, "[6]": {"molecular_target": "T3, Protein mono-ADP-ribosyltransferase PARP16 (Homo sapiens, UniProt Q8N5Y8)", "T3 sequence (Q8N5Y8 whole entry)": "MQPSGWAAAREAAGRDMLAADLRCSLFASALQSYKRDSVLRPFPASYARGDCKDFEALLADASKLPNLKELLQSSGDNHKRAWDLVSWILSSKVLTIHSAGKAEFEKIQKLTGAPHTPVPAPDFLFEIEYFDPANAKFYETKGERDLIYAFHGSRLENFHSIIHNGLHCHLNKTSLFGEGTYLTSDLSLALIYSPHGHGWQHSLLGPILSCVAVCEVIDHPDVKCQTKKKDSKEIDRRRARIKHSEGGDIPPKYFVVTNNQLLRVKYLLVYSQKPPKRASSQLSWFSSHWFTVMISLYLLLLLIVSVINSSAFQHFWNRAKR", "assay": "Inhibition of PARP16 (unknown origin)"}, "MDA-MB-231 [7]": {"system": "MDA-MB-231", "assay": "Antiproliferative activity against human MDA-MB-231 cells assessed as cell growth inhibition incubated for 24 hrs in presence of nutlin-3 by CCK-8 assay", "details": "MDA-MB-231, 24 h"}, "MDA-MB-231 [8]": {"system": "MDA-MB-231", "assay": "Antiproliferative activity against human MDA-MB-231 cells assessed as cell growth inhibition incubated for 24 hrs by CCK-8 assay", "type": "functional, cell-based", "details": "MDA-MB-231, 24 h"}, "MDA-MB-231 [9]": {"system": "MDA-MB-231", "assay": "Antiproliferative activity against human MDA-MB-231 cells assessed as cell growth inhibition at 10 uM incubated for 24 hrs by CCK-8 assay relative to control", "type": "functional", "set-up": "scale not given: the % may be the effect or the level left"}, "A549 [10]": {"system": "A549", "assay": "Antiproliferative activity against human A549 cells assessed as cell growth inhibition measured after 24 hrs by MTT assay", "type": "functional, cell-based", "details": "A549, 24 h"}, "[11]": {"molecular_target": "Epidermal growth factor receptor (Homo sapiens, UniProt P00533)", "sequence (P00533 whole entry)": "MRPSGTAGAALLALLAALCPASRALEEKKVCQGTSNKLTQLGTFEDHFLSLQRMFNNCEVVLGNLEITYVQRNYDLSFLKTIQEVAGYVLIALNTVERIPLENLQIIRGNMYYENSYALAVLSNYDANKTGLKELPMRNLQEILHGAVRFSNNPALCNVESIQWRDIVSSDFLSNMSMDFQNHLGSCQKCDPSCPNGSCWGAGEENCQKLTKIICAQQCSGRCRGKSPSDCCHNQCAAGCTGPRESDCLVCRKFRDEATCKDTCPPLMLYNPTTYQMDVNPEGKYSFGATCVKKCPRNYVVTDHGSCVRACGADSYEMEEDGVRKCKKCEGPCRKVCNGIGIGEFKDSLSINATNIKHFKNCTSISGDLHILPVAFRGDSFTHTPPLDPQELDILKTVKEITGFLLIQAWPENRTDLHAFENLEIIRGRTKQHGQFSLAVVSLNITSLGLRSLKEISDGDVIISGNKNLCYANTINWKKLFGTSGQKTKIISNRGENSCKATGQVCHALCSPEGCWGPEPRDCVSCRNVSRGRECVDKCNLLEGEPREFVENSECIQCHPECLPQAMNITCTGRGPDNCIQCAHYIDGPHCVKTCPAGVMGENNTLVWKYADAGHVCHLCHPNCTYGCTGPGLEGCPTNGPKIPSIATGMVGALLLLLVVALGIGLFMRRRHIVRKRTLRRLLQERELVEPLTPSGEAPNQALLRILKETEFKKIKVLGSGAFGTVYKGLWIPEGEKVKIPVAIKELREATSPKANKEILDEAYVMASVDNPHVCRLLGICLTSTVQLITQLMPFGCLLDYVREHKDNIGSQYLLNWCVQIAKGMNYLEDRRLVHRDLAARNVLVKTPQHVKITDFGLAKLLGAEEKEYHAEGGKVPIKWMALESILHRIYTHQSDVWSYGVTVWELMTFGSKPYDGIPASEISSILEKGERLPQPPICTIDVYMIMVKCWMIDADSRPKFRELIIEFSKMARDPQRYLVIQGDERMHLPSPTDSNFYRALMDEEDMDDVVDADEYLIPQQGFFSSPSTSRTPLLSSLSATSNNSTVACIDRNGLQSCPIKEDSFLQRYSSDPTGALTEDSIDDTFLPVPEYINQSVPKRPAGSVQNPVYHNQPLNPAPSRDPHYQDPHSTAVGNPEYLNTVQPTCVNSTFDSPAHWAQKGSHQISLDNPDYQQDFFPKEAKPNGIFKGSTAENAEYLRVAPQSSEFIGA", "assay": "Inhibition of EGFR (unknown origin)"}}, "data": [{"compound": "CN(CCOCCOCCOCCOCCOCCOCCNc1cccc2c1C(=O)N(C1CCC(=O)NC1=O)C2=O)Cc1ccc(-c2[nH]c3cc(F)cc4c3c2CCNC4=O)cc1", "note": "(centres undefined)", "values": [{"measurement": "DC50", "setting": "[1]", "result": 36, "unit": "nM"}]}, {"compound": "CC(c1nc2cccc(C(N)=O)c2[nH]1)N1CC(=O)N(c2cccc(C(F)(F)F)c2)C1=S", "note": "(centres undefined)", "values": [{"measurement": "IC50", "setting": "[2]", "result": 25, "unit": "nM"}, {"measurement": "IC50", "setting": "MDA-MB-436", "result": 1000, "unit": "nM"}]}, {"compound": "O=C1CN(Cc2cn(-c3ccccc3F)nn2)C2(CCCCC2)c2ccccc21", "values": [{"measurement": "IC50", "setting": "[3]", "result": 14.4, "unit": "nM"}, {"measurement": "IC50", "setting": "A549 [4]", "result": 230, "unit": "nM"}]}, {"compound": "O=C1NCC(c2ccccn2)[C@@H](O)c2cc(Cl)c(Cl)cc21", "note": "(some centres undefined)", "values": [{"measurement": "IC50", "setting": "[5]", "result": 74100, "unit": "nM"}, {"measurement": "IC50", "setting": "[6]", "result": 362, "unit": "nM"}]}, {"compound": "O=c1cc(-c2ccc(O)c(-c3c(O)cc(O)c4c(=O)cc(-c5ccc(O)cc5)oc34)c2)oc2cc(O)cc(O)c12", "note": "[AMENTOFLAVONE]", "values": [{"measurement": "IC50", "setting": "[3]", "result": 198, "unit": "nM"}]}, {"compound": "O=C(c1ccc(Cc2n[nH]c(=O)c3cccnc23)cc1)N1CCCC1", "values": [{"measurement": "IC50", "setting": "[2]", "result": 36, "unit": "nM"}]}, {"compound": "NC(=O)c1cccc2cn(-c3ccc([C@@H]4CCCNC4)cc3)nc12", "note": "[NIRAPARIB]", "values": [{"measurement": "IC50", "setting": "MDA-MB-231 [7]", "result": 60900, "unit": "nM"}, {"measurement": "IC50", "setting": "MDA-MB-231 [8]", "result": 33200, "unit": "nM"}]}, {"compound": "COc1ccc(C2=N[C@H](c3ccc(Cl)cc3)[C@H](c3ccc(Cl)cc3)N2C(=O)N2CCN(CC(=O)NCCOCCOCCOCCOCCn3cc(-c4ccc(-n5cc6cccc(C(N)=O)c6n5)cc4)nn3)C(=O)C2)c(OC(C)C)c1", "values": [{"measurement": "Activity", "setting": "MDA-MB-231 [9]", "result": 70, "unit": "%"}, {"measurement": "IC50", "setting": "MDA-MB-231 [8]", "result": 8450, "unit": "nM"}]}, {"compound": "O=C1CCc2cc(-c3ccccc3F)ccc2C2(CCCCC2)N1", "values": [{"measurement": "IC50", "setting": "A549 [10]", "result": 2010, "unit": "nM"}, {"measurement": "IC50", "setting": "[3]", "result": 19.9, "unit": "nM"}]}, {"compound": "Cc1nnc2n1N=C(c1ccccc1OCCNCCCNCCOc1ccccc1C1=Nn3c(C)nnc3SC1)CS2", "values": [{"measurement": "IC50", "setting": "[3]", "result": 1.37, "unit": "nM"}, {"measurement": "IC50", "setting": "[11]", "result": 64.7, "unit": "nM"}]}, {"compound": "O=C1CCN(Cc2cn(-c3ccccc3F)nn2)C2(CCCCC2)c2ccccc21", "values": [{"measurement": "IC50", "setting": "A549 [4]", "result": 1890, "unit": "nM"}]}, {"compound": "COc1ccc(C2=NC(c3ccc(Cl)cc3)C(c3ccc(Cl)cc3)N2C(=O)N2CCNC(=O)C2)c(OC(C)C)c1", "note": "(centres undefined)", "values": [{"measurement": "IC50", "setting": "MDA-MB-231 [8]", "result": 28500, "unit": "nM"}]}]}
